{"source": "ChEMBL document CHEMBL4043165", "about": "“Synthesis, estrogen receptor binding affinity and molecular docking of pyrimidine-piperazine-chromene and -quinoline conjugates” (Bioorg Med Chem Lett, 2017)", "assay_type_in_all_cases": "cell-based", "key": {"[1]": {"test": "Modulation activity at ER in human MCF7 cells assessed as reduction in cell viability after 48 hrs by MTT assay", "conditions": "MCF7, 48 h"}, "HEK-293T [2]": {"system": "HEK-293T", "test": "Cytotoxicity against HEK293T cells assessed as reduction in cell viability at <50 uM after 48 hrs by MTT assay", "conditions": "human"}, "HEK-293T [3]": {"system": "HEK-293T", "test": "Cytotoxicity against HEK293T cells assessed as reduction in cell viability after 48 hrs by MTT assay", "conditions": "Homo sapiens"}, "HEK-293T [4]": {"system": "HEK-293T", "test": "Cytotoxicity against HEK293T cells assessed as reduction in cell viability up to 50 uM after 48 hrs by MTT assay", "conditions": "human"}}}
{"smiles": "Cc1nc(Oc2ccc3c(c2)OC(N)=C(C#N)C3c2ccccc2Cl)cc(N2CCN(CCO)CC2)n1", "note": "(stereo unspecified)", "values": [{"measurement": "IC50", "setting": "[1]", "value": 119, "unit": "µM"}, {"measurement": "Activity", "setting": "HEK-293T [2]", "value": "Toxic"}, {"measurement": "IC50", "setting": "HEK-293T [3]", "value": 79, "unit": "µM"}]}
{"smiles": "COc1cc(/C=C/C(=O)CC(=O)/C=C/c2ccc(O)c(OC)c2)ccc1O", "note": "[CURCUMIN]", "values": [{"measurement": "IC50", "setting": "HEK-293T [3]", "value": "> 400", "unit": "µM"}]}
{"smiles": "COc1ccc(C2C(C#N)=C(N)Nc3cc(Oc4cc(N5CCN(CCO)CC5)nc(C)n4)ccc32)cc1", "note": "(stereo unspecified)", "values": [{"measurement": "IC50", "setting": "[1]", "value": 12, "unit": "µM"}, {"measurement": "Activity", "setting": "HEK-293T [2]", "value": "Toxic"}, {"measurement": "IC50", "setting": "HEK-293T [3]", "value": 62, "unit": "µM"}]}
{"smiles": "Cc1nc(Oc2ccc3c(c2)OC(N)=C(C#N)C3c2c(Cl)cccc2Cl)cc(N2CCN(CCO)CC2)n1", "note": "(stereo unspecified)", "values": [{"measurement": "IC50", "setting": "[1]", "value": 136, "unit": "µM"}, {"measurement": "Activity", "setting": "HEK-293T [2]", "value": "Toxic"}, {"measurement": "IC50", "setting": "HEK-293T [3]", "value": 51, "unit": "µM"}]}
{"smiles": "Cc1nc(Oc2ccc3c(c2)OC(N)=C(C#N)C3c2ccc([N+](=O)[O-])cc2)cc(N2CCN(CCO)CC2)n1", "note": "(stereo unspecified)", "values": [{"measurement": "Activity", "setting": "HEK-293T [4]", "value": "Non-Toxic"}, {"measurement": "IC50", "setting": "[1]", "value": 30, "unit": "µM"}, {"measurement": "IC50", "setting": "HEK-293T [3]", "value": 105, "unit": "µM"}]}
{"smiles": "Cc1nc(Oc2ccc3c(c2)NC(N)=C(C#N)C3c2ccccc2C)cc(N2CCN(CCO)CC2)n1", "note": "(stereo unspecified)", "values": [{"measurement": "IC50", "setting": "[1]", "value": 198, "unit": "µM"}, {"measurement": "Activity", "setting": "HEK-293T [2]", "value": "Toxic"}, {"measurement": "IC50", "setting": "HEK-293T [3]", "value": 57, "unit": "µM"}]}
{"smiles": "Cc1nc(Oc2ccc3c(c2)NC(N)=C(C#N)C3c2c(Cl)cccc2Cl)cc(N2CCN(CCO)CC2)n1", "note": "(stereo unspecified)", "values": [{"measurement": "IC50", "setting": "[1]", "value": 102, "unit": "µM"}, {"measurement": "Activity", "setting": "HEK-293T [2]", "value": "Toxic"}, {"measurement": "IC50", "setting": "HEK-293T [3]", "value": 62, "unit": "µM"}]}
{"smiles": "Cc1ccc(C2C(C#N)=C(N)Nc3cc(Oc4cc(N5CCN(CCO)CC5)nc(C)n4)ccc32)cc1", "note": "(stereo unspecified)", "values": [{"measurement": "Activity", "setting": "HEK-293T [4]", "value": "Non-Toxic"}, {"measurement": "IC50", "setting": "[1]", "value": 48, "unit": "µM"}, {"measurement": "IC50", "setting": "HEK-293T [3]", "value": 140, "unit": "µM"}]}
{"smiles": "COc1ccc(C2C(C#N)=C(N)Oc3cc(Oc4cc(N5CCN(CCO)CC5)nc(C)n4)ccc32)cc1", "note": "(stereo unspecified)", "values": [{"measurement": "IC50", "setting": "[1]", "value": 104, "unit": "µM"}, {"measurement": "Activity", "setting": "HEK-293T [2]", "value": "Toxic"}, {"measurement": "IC50", "setting": "HEK-293T [3]", "value": 55, "unit": "µM"}]}
{"smiles": "Cc1nc(Oc2ccc3c(c2)OC(N)=C(C#N)C3c2ccc(Br)cc2)cc(N2CCN(CCO)CC2)n1", "note": "(stereo unspecified)", "values": [{"measurement": "IC50", "setting": "[1]", "value": 91, "unit": "µM"}, {"measurement": "Activity", "setting": "HEK-293T [2]", "value": "Toxic"}, {"measurement": "IC50", "setting": "HEK-293T [3]", "value": 19, "unit": "µM"}]}
{"smiles": "Cc1nc(Oc2ccc3c(c2)OC(N)=C(C#N)C3c2ccccc2C)cc(N2CCN(CCO)CC2)n1", "note": "(stereo unspecified)", "values": [{"measurement": "IC50", "setting": "[1]", "value": 61, "unit": "µM"}, {"measurement": "Activity", "setting": "HEK-293T [2]", "value": "Toxic"}, {"measurement": "IC50", "setting": "HEK-293T [3]", "value": 56, "unit": "µM"}]}
{"smiles": "Cc1nc(Oc2ccc3c(c2)NC(N)=C(C#N)C3c2ccccc2)cc(N2CCN(CCO)CC2)n1", "note": "(stereo unspecified)", "values": [{"measurement": "Activity", "setting": "HEK-293T [4]", "value": "Non-Toxic"}, {"measurement": "IC50", "setting": "[1]", "value": 65, "unit": "µM"}, {"measurement": "IC50", "setting": "HEK-293T [3]", "value": 141, "unit": "µM"}]}
{"smiles": "Cc1nc(Oc2ccc3c(c2)OC(N)=C(C#N)C3c2ccccc2)cc(N2CCN(CCO)CC2)n1", "note": "(stereo unspecified)", "values": [{"measurement": "Activity", "setting": "HEK-293T [4]", "value": "Non-Toxic"}, {"measurement": "IC50", "setting": "[1]", "value": 92, "unit": "µM"}, {"measurement": "IC50", "setting": "HEK-293T [3]", "value": "> 200", "unit": "µM"}]}
{"smiles": "Cc1nc(Oc2ccc3c(c2)OC(N)=C(C#N)C3c2ccc(F)cc2)cc(N2CCN(CCO)CC2)n1", "note": "(stereo unspecified)", "values": [{"measurement": "IC50", "setting": "[1]", "value": 166, "unit": "µM"}, {"measurement": "Activity", "setting": "HEK-293T [2]", "value": "Toxic"}, {"measurement": "IC50", "setting": "HEK-293T [3]", "value": 52, "unit": "µM"}]}
{"smiles": "Cc1nc(Oc2ccc3c(c2)NC(N)=C(C#N)C3c2ccccc2Cl)cc(N2CCN(CCO)CC2)n1", "note": "(stereo unspecified)", "values": [{"measurement": "IC50", "setting": "[1]", "value": 190, "unit": "µM"}, {"measurement": "Activity", "setting": "HEK-293T [2]", "value": "Toxic"}, {"measurement": "IC50", "setting": "HEK-293T [3]", "value": 70, "unit": "µM"}]}
{"smiles": "Cc1ccc(C2C(C#N)=C(N)Oc3cc(Oc4cc(N5CCN(CCO)CC5)nc(C)n4)ccc32)cc1", "note": "(stereo unspecified)", "values": [{"measurement": "Activity", "setting": "HEK-293T [4]", "value": "Non-Toxic"}, {"measurement": "IC50", "setting": "[1]", "value": 16, "unit": "µM"}, {"measurement": "IC50", "setting": "HEK-293T [3]", "value": "> 200", "unit": "µM"}]}
{"smiles": "Cc1nc(Oc2ccc3c(c2)NC(N)=C(C#N)C3c2ccc(Cl)cc2)cc(N2CCN(CCO)CC2)n1", "note": "(stereo unspecified)", "values": [{"measurement": "IC50", "setting": "[1]", "value": 170, "unit": "µM"}, {"measurement": "Activity", "setting": "HEK-293T [2]", "value": "Toxic"}, {"measurement": "IC50", "setting": "HEK-293T [3]", "value": 95, "unit": "µM"}]}
{"smiles": "Cc1nc(Oc2ccc3c(c2)OC(N)=C(C#N)C3c2ccc(Cl)cc2)cc(N2CCN(CCO)CC2)n1", "note": "(stereo unspecified)", "values": [{"measurement": "IC50", "setting": "[1]", "value": 73, "unit": "µM"}, {"measurement": "Activity", "setting": "HEK-293T [2]", "value": "Toxic"}, {"measurement": "IC50", "setting": "HEK-293T [3]", "value": 18, "unit": "µM"}]}
{"smiles": "COc1cccc(C2C(C#N)=C(N)Nc3cc(Oc4cc(N5CCN(CCO)CC5)nc(C)n4)ccc32)c1", "note": "(stereo unspecified)", "values": [{"measurement": "IC50", "setting": "[1]", "value": 166, "unit": "µM"}, {"measurement": "Activity", "setting": "HEK-293T [2]", "value": "Toxic"}, {"measurement": "IC50", "setting": "HEK-293T [3]", "value": 39, "unit": "µM"}]}
{"smiles": "Cc1nc(Oc2ccc3c(c2)NC(N)=C(C#N)C3c2ccc(F)cc2)cc(N2CCN(CCO)CC2)n1", "note": "(stereo unspecified)", "values": [{"measurement": "IC50", "setting": "[1]", "value": 48, "unit": "µM"}, {"measurement": "Activity", "setting": "HEK-293T [2]", "value": "Toxic"}, {"measurement": "IC50", "setting": "HEK-293T [3]", "value": 72, "unit": "µM"}]}
{"smiles": "Cc1nc(Oc2ccc3c(c2)NC(N)=C(C#N)C3c2ccc(Br)cc2)cc(N2CCN(CCO)CC2)n1", "note": "(stereo unspecified)", "values": [{"measurement": "IC50", "setting": "[1]", "value": 193, "unit": "µM"}, {"measurement": "Activity", "setting": "HEK-293T [2]", "value": "Toxic"}, {"measurement": "IC50", "setting": "HEK-293T [3]", "value": 62, "unit": "µM"}]}
